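Dose response: 5 concentrations. Exposure: 48 h. Format: 96-well plates. Endpoint: linear interpolation; highest concentration if not reached. TGI denotes the concentration required for complete inhibition of growth.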
Experiments:
Assay in all cases: DTP human tumour cell line panel, 48 h
SK-MEL-5 melanoma = system: SK-MEL-5 melanoma
HOP-62 NSCLC = system: HOP-62 NSCLC
SF-295 CNS = system: SF-295 CNS
RXF 393 renal = system: RXF 393 renal
SN12C renal = system: SN12C renal
MOLT-4 leukemia = system: MOLT-4 leukemia
786-0 renal = system: 786-0 renal
TK-10 renal = system: TK-10 renal
SR leukemia = system: SR leukemia
U251 CNS = system: U251 CNS
A498 renal = system: A498 renal
UACC-62 melanoma = system: UACC-62 melanoma
NCI-H23 lung = system: NCI-H23 lung
KM12 colon = system: KM12 colon
NCI-H460 lung = system: NCI-H460 lung
HT29 colon = system: HT29 colon
OVCAR-8 ovarian = system: OVCAR-8 ovarian
SNB-75 CNS = system: SNB-75 CNS
HL-60(TB) leukemia = system: HL-60(TB) leukemia
K-562 leukemia = system: K-562 leukemia
OVCAR-3 ovarian = system: OVCAR-3 ovarian
T-47D breast = system: T-47D breast
NCI-H522 lung = system: NCI-H522 lung
SK-MEL-28 melanoma = system: SK-MEL-28 melanoma
CCRF-CEM leukemia = system: CCRF-CEM leukemia
RPMI-8226 leukemia = system: RPMI-8226 leukemia
A549 NSCLC = system: A549 NSCLC
BT-549 breast = system: BT-549 breast
MDA-MB-231 breast = system: MDA-MB-231 breast
SW-620 colon = system: SW-620 colon
CAKI-1 renal = system: CAKI-1 renal
IGROV1 ovarian = system: IGROV1 ovarian
M14 melanoma = system: M14 melanoma
OVCAR-4 ovarian = system: OVCAR-4 ovarian
HCC-2998 colon = system: HCC-2998 colon
MALME-3M melanoma = system: MALME-3M melanoma
OVCAR-5 ovarian = system: OVCAR-5 ovarian
MDA-N = system: MDA-N
UO-31 renal = system: UO-31 renal
LOX IMVI melanoma = system: LOX IMVI melanoma
COLO 205 colon = system: COLO 205 colon
SNB-19 CNS = system: SNB-19 CNS
MCF7 breast = system: MCF7 breast
HCT-15 colon = system: HCT-15 colon
DU-145 prostate = system: DU-145 prostate
PC-3 prostate = system: PC-3 prostate
NCI-H226 lung = system: NCI-H226 lung
ACHN renal = system: ACHN renal
NCI/ADR-RES ovarian = system: NCI/ADR-RES ovarian
HCT-116 colon = system: HCT-116 colon
HS 578T breast = system: HS 578T breast
UACC-257 melanoma = system: UACC-257 melanoma
MDA-MB-435 = system: MDA-MB-435
SF-268 CNS = system: SF-268 CNS
SK-OV-3 ovarian = system: SK-OV-3 ovarian
HOP-92 NSCLC = system: HOP-92 NSCLC
SF-539 CNS = system: SF-539 CNS
SK-MEL-2 melanoma = system: SK-MEL-2 melanoma
EKVX NSCLC = system: EKVX NSCLC

SMILES: Cc1ccc(S(=O)(=O)/N=C(\NO)Nc2ccc(Cl)c(Cl)c2)cc1
- TGI (SK-MEL-5 melanoma): 4.82 µM
- TGI (HOP-62 NSCLC): 27.4 µM
- TGI (SF-295 CNS): 31.8 µM
- TGI (RXF 393 renal): 24.2 µM
- TGI (SN12C renal): 5.58 µM
- TGI (MOLT-4 leukemia): 5.45 µM
- TGI (786-0 renal): 16.2 µM
- TGI (TK-10 renal): 27.8 µM
- TGI (SR leukemia): 21.5 µM
- TGI (U251 CNS): 16.8 µM
- TGI (A498 renal): 23.7 µM
- TGI (UACC-62 melanoma): 24.1 µM
- TGI (NCI-H23 lung): 37.2 µM
- TGI (KM12 colon): 25.4 µM
- TGI (NCI-H460 lung): 23.7 µM
- TGI (HT29 colon): 25.5 µM
- TGI (OVCAR-8 ovarian): 24.4 µM
- TGI (SNB-75 CNS): 17.6 µM
- TGI (HL-60(TB) leukemia): 5.42 µM
- TGI (K-562 leukemia): 35 µM
- TGI (OVCAR-3 ovarian): 16.9 µM
- TGI (T-47D breast): 37 µM
- TGI (NCI-H522 lung): 19.1 µM
- TGI (SK-MEL-28 melanoma): 13.3 µM
- TGI (CCRF-CEM leukemia): 15.9 µM
- TGI (RPMI-8226 leukemia): 30.9 µM
- TGI (A549 NSCLC): 26.9 µM
- TGI (BT-549 breast): 23.8 µM
- TGI (MDA-MB-231 breast): 24.3 µM
- TGI (SW-620 colon): 25.4 µM
- TGI (CAKI-1 renal): 19.2 µM
- TGI (IGROV1 ovarian): 31.3 µM
- TGI (M14 melanoma): 18.3 µM
- TGI (OVCAR-4 ovarian): 21.8 µM
- TGI (HCC-2998 colon): 4.93 µM
- TGI (MALME-3M melanoma): 7.41 µM
- TGI (OVCAR-5 ovarian): 12.6 µM
- TGI (MDA-N): 14.5 µM
- TGI (UO-31 renal): 18.3 µM
- TGI (LOX IMVI melanoma): 19 µM
- TGI (COLO 205 colon): 30.8 µM
- TGI (SNB-19 CNS): 21.4 µM
- TGI (MCF7 breast): 41.3 µM
- TGI (HCT-15 colon): 28.4 µM
- TGI (DU-145 prostate): 24.6 µM
- TGI (PC-3 prostate): 18.4 µM
- TGI (NCI-H226 lung): 34.7 µM
- TGI (ACHN renal): 24.9 µM
- TGI (NCI/ADR-RES ovarian): 46.3 µM
- TGI (HCT-116 colon): 17.7 µM
- TGI (HS 578T breast): 27.3 µM
- TGI (UACC-257 melanoma): 15.3 µM
- TGI (MDA-MB-435): 13.6 µM
- TGI (SF-268 CNS): 19.9 µM
- TGI (SK-OV-3 ovarian): 28.5 µM
- TGI (HOP-92 NSCLC): 11.8 µM
- TGI (SF-539 CNS): 24.5 µM
- TGI (SK-MEL-2 melanoma): 22.4 µM
- TGI (EKVX NSCLC): 19.9 µM

SMILES: COc1c(O)ccc(C2=Cc3ccc(O)cc3OC2)c1OC
- TGI (SK-MEL-5 melanoma): 38.5 µM
- TGI (HOP-62 NSCLC): 62.4 µM
- TGI (SF-295 CNS): > 83.6 µM
- TGI (RXF 393 renal): > 63.5 µM
- TGI (SN12C renal): > 96.5 µM
- TGI (MOLT-4 leukemia): 37 µM
- TGI (786-0 renal): > 63.5 µM
- TGI (TK-10 renal): > 100 µM
- TGI (SR leukemia): 17.1 µM
- TGI (U251 CNS): > 100 µM
- TGI (A498 renal): 80.8 µM
- TGI (UACC-62 melanoma): > 50.7 µM
- TGI (NCI-H23 lung): > 58.3 µM
- TGI (KM12 colon): 33.4 µM
- TGI (NCI-H460 lung): > 100 µM
- TGI (HT29 colon): > 89.5 µM
- TGI (OVCAR-8 ovarian): > 62.5 µM
- TGI (SNB-75 CNS): > 58.3 µM
- TGI (HL-60(TB) leukemia): 10.7 µM
- TGI (K-562 leukemia): 45.8 µM
- TGI (OVCAR-3 ovarian): 34 µM
- TGI (T-47D breast): > 82.3 µM
- TGI (NCI-H522 lung): 16.1 µM
- TGI (SK-MEL-28 melanoma): > 94 µM
- TGI (CCRF-CEM leukemia): > 96.7 µM
- TGI (RPMI-8226 leukemia): > 26.8 µM
- TGI (A549 NSCLC): > 78.9 µM
- TGI (BT-549 breast): > 82.4 µM
- TGI (MDA-MB-231 breast): > 80.7 µM
- TGI (SW-620 colon): > 100 µM
- TGI (CAKI-1 renal): 50 µM
- TGI (IGROV1 ovarian): > 100 µM
- TGI (M14 melanoma): 66.8 µM
- TGI (OVCAR-4 ovarian): > 81.1 µM
- TGI (HCC-2998 colon): 47.1 µM
- TGI (MALME-3M melanoma): 65.7 µM
- TGI (OVCAR-5 ovarian): 97.7 µM
- TGI (MDA-N): 33.5 µM
- TGI (UO-31 renal): 28.4 µM
- TGI (LOX IMVI melanoma): > 100 µM
- TGI (COLO 205 colon): > 74 µM
- TGI (SNB-19 CNS): > 100 µM
- TGI (MCF7 breast): > 100 µM
- TGI (HCT-15 colon): 37.3 µM
- TGI (DU-145 prostate): > 79.6 µM
- TGI (PC-3 prostate): 84.4 µM
- TGI (NCI-H226 lung): > 65.4 µM
- TGI (ACHN renal): > 63.4 µM
- TGI (NCI/ADR-RES ovarian): > 67.9 µM
- TGI (HCT-116 colon): > 61.7 µM
- TGI (HS 578T breast): > 95.3 µM
- TGI (UACC-257 melanoma): > 89.7 µM
- TGI (MDA-MB-435): > 92.2 µM
- TGI (SF-268 CNS): > 100 µM
- TGI (SK-OV-3 ovarian): > 80.8 µM
- TGI (HOP-92 NSCLC): > 74 µM
- TGI (SF-539 CNS): 35.3 µM
- TGI (SK-MEL-2 melanoma): 68 µM
- TGI (EKVX NSCLC): > 100 µM

Source: PubChem BioAssay (NCI)
